Measurements reported in PMC9783783 (Pharmaceutics, 2022).

Key:
in vivo = details: for AUC / clearance / CL renal / half-life / Vd / Cmax / bioavailability / Tmax: rat, in vivo; for clearance: CL; for CL renal: CLR; for half-life: Terminal half-life; for Vd: Vss; for bioavailability: F (absolute oral bioavailability), 20 mg/kg oral vs 10 mg/kg i.v.
Procedure: All surgical procedures were performed following anesthesia with 100 mg/kg ketamine according to a previously reported method. For the intravenous study, the carotid artery and jugular vein were cannulated for blood sampling and drug administration, respectively. For the oral study, rats were restrained from food overnight but were allowed to drink water ad libitum. Only the carotid artery was cannulated for the blood sampling.
A heparinized 0.9% NaCl-injectable solution (10 IU/mL) was immediately flushed into the carotid artery after collecting the blood samples to prevent blood clotting.
The volume of the combined urine was then measured, and two 100 μL aliquot samples were collected. At the same time, the rat abdomen was surgically opened, and the whole gastrointestinal tract was collected in a beaker containing 50 mL methanol and cut into small pieces. After even mixing, 50 µL of the supernatant was collected.
Pharmacokinetic parameters were estimated using the standard method by non-compartmental analysis (WinNonlin; Pharsight Corporation, Mountain View, CA, USA). AUC values were calculated using the trapezoidal rule–extrapolation method. The peak plasma concentration (Cmax) and time to reach Cmax (Tmax) were measured directly from the plasma concentration–time curves. […] The glomerular filtration rate was measured by calculating the CLCR, assuming that the kidney function was stable during the experimental period.

P-gp = details: cited from earlier work
[1] = human, oral; cited from earlier work
[2] = Procedure: Enzyme kinetics in the hepatic and intestinal microsomes were determined according to a previously reported method. Microsomal protein concentrations in the liver and intestine were measured using bicinchoninic acid assay. […] The total volume was adjusted to 1 mL by adding 0.1 M phosphate-buffered solution (pH 7.4) to the system, and the samples were incubated for 15 min in a water-bath shaker at 37 °C at the rate of 50 oscillations per min. The reaction was completed by adding 2 volumes of methanol. Subsequently, two 50 μL aliquots of each reaction mixture were collected.
[3] = rats (n = 3), 10 mg/kg i.v.; cited from earlier work
[4] = rats, intraportal administration; cited from earlier work
in vitro = details: for fraction unbound at 24 h, 10 μg/mL: rat, plasma, pH 7.4, Plasma protein binding
Procedure: Rat plasma (1 mL) from each group was dialyzed against 1 mL of isotonic Sørensen phosphate buffer (pH 7.4) containing 3% dextran (“the buffer”) via a Spectra/Por 2 membrane (molecular weight cutoff: 12,000–14,000 Da; Spectrum Medical Industries, Los Angeles, CA, USA). […] The binding percentage (%) was calculated as follows:(1) Binding %=CP−CB/CP×100

[5] = various pH buffers (pH 2–10) and gastric juice (pH 3.5), 24 h; cited from earlier work
[6] = LC rats vs CON rats, 10 mg/kg i.v.
[7] = LC rats vs CON rats, 20 mg/kg oral
[8] = LC-ISN rats vs CON rats, 10 mg/kg i.v.
[9] = LC-ISN rats vs CON rats, 20 mg/kg oral
[10] = LC-ISN rats vs LC rats, 10 mg/kg i.v.
[11] = LC-ISN rats vs LC rats, 20 mg/kg oral
[12] = iv, 10 mg/kg, CON rats, 10 mg/kg i.v. 1 min infusion
[13] = iv, 10 mg/kg, LC rats, 10 mg/kg i.v. 1 min infusion
[14] = iv, 10 mg/kg, LC-ISN rats, 10 mg/kg i.v. 1 min infusion
[15] = iv, 10 mg/kg, CON rats, 10 mg/kg i.v.
[16] = iv, 10 mg/kg, LC rats, 10 mg/kg i.v.
[17] = iv, 10 mg/kg, LC-ISN rats, 10 mg/kg i.v.
[18] = po, 20 mg/kg, CON rats, 20 mg/kg oral
[19] = po, 20 mg/kg, LC rats, 20 mg/kg oral
[20] = po, 20 mg/kg, LC-ISN rats, 20 mg/kg oral
[21] = hepatic microsomes, LC rats vs CON rats

## CC1CCN(C(=O)CC#N)CC1N(C)c1ncnc2[nH]ccc12 (stereo not drawn) [tofacitinib, 3-(4-methyl-3-(methyl(7H-pyrrolo[2,3-d]pyrimidin-4yl)amino)piperidin-1-yl)-3-oxopropanenitrile]
In vivo; CON rats, 10 mg/kg i.v.
  Ae0–24 h (excreted in urine as unchanged for 24 h): 13.9 ± 2.28 % of dose
  CLNR: 21.1 ± 4.57 mL/min/kg
  GI24 h (remained in the gastrointestinal tract at 24 h): 0.164 ± 0.102 % of dose
In vivo; CON rats, 20 mg/kg oral
  Ae0–24 h: 11.8 ± 4.08 % of dose
  GI24 h: 0.106 ± 0.101 % of dose
In vivo; [6]
  Greater Ae0–24 h: 189%
  Increase in AUC: 158%
  Increase in Vss: 86.0%
  Longer terminal half-life: 219%
  Slower CL: 54.4%
  Slower CLNR: 69.9%
In vivo; [7]
  Increase in AUC: 429%
  Increase in Ae0–24 h: 203%
  Increase in Cmax: 158%
  Increase in F: 105%
In vivo; LC rats, 10 mg/kg i.v.
  Ae0–24 h (excreted in urine as unchanged for 24 h): 40.2 ± 18.9 % of dose
  CLNR: 6.35 ± 1.27 mL/min/kg
  GI24 h (remained in the gastrointestinal tract at 24 h): 2.07 ± 2.12 % of dose
In vivo; LC rats, 20 mg/kg oral
  Ae0–24 h: 35.8 ± 16.9 % of dose
  GI24 h: 1.73 ± 2.04 % of dose
In vivo; [8]
  Greater Ae0–24 h: 117%
  Increase in terminal half-life: 64.4%
  Slower CL: 42.7%
  Slower CLNR: 54.1%
In vivo; [9]
  Increase in AUC: 223%
  Increase in Ae0–24 h: 204%
  Increase in Cmax: 72.2%
  Increase in F: 92.9%
In vivo; [10]
  Decrease in AUC: 35.1%
  Decrease in terminal half-life: 48.5%
In vivo; [11]
  Decrease in AUC: 38.9%
  Decrease in Cmax: 33.2%
In vivo; LC-ISN rats, 10 mg/kg i.v.
  Ae0–24 h (excreted in urine as unchanged for 24 h): 30.1 ± 12.3 % of dose
  CLNR: 9.68 ± 2.40 mL/min/kg
  GI24 h (remained in the gastrointestinal tract at 24 h): 0.166 ± 0.135 % of dose
In vivo; LC-ISN rats, 20 mg/kg oral
  Ae0–24 h: 35.9 ± 16.8 % of dose
  GI24 h: 0.340 ± 0.288 % of dose
In vivo; [12]
  AUC: 7330 ng·h/mL
  half-life: 35.4 ± 19.2 min
In vivo; [13]
  AUC: 18900 ng·h/mL
  half-life: 113 ± 43.7 min
In vivo; [14]
  AUC: 12300 ng·h/mL
  half-life: 58.2 ± 16.8 min
In vivo; [15]
  clearance: 24.1 ± 6.27 mL/min/kg
  CL renal: 3.73 ± 1.09 mL/min/kg
  Vd: 0.429 ± 0.253 L/kg
In vivo; [16]
  clearance: 11 ± 2.06 mL/min/kg
  CL renal: 4.65 ± 2.74 mL/min/kg
  Vd: 0.798 ± 0.177 L/kg
In vivo; [17]
  clearance: 13.8 ± 1.73 mL/min/kg
  CL renal: 4.1 ± 1.64 mL/min/kg
  Vd: 0.8 ± 0.326 L/kg
In vivo; [18]
  AUC: 6400 ng·h/mL
  CL renal: 6.98 ± 2.99 mL/min/kg
  Cmax: 3530 ± 1460 ng/mL
  Tmax: 50 min
In vivo; [19]
  AUC: 33800 ng·h/mL
  CL renal: 3.62 ± 1.78 mL/min/kg
  Cmax: 9100 ± 1260 ng/mL
  Tmax: 55.7 min
In vivo; [20]
  AUC: 20700 ng·h/mL
  CL renal: 5.71 ± 2.47 mL/min/kg
  Cmax: 6080 ± 1990 ng/mL
  Tmax: 85.7 min
In vivo; po, 20 mg/kg, CON rats
  bioavailability: 43.6%
In vivo; po, 20 mg/kg, LC rats
  bioavailability: 89.5%
In vivo; po, 20 mg/kg, LC-ISN rats
  bioavailability: 84.1%
In vivo; the three groups of rats, 20 mg/kg oral
  GI24 h: less than 1.73 % of the oral dose
P-gp
  P-gp substrate: substrate of P-gp
[1]
  Fraction excreted by the kidneys in unmetabolized form: 30%
[2]; hepatic microsomes, CON, LC and LC-ISN rats
  Km for disappearance of tofacitinib: comparable among the three groups of rats
[2]; [21]
  Decrease in hepatic CLint: 64.9%
  Slower Vmax for disappearance of tofacitinib: 63.4%
[2]; hepatic microsomes, LC-ISN rats vs CON rats
  Hepatic CLint recovered to % of CON rats: 92.2%
[2]; intestinal microsomes, CON, LC and LC-ISN rats
  Intestinal CLint: not significantly different among the three groups of rats
[3]
  Biliary excretion: 0.703 % of the unchanged drug dose
[4]
  Hepatic first-pass effect: 42.0%
In vitro; LC rats vs CON rats
  Decrease in plasma protein binding: 28.3%
In vitro; LC-ISN rats vs CON rats
  Decrease in plasma protein binding: 21.5%
In vitro; CON rat plasma, 10 μg/mL tofacitinib, 37 °C, 24 h
  fraction unbound at 24 h, 10 μg/mL: 0.749
In vitro; LC rat plasma, 10 μg/mL tofacitinib, 37 °C, 24 h
  fraction unbound at 24 h, 10 μg/mL: 0.82
In vitro; LC-ISN rat plasma, 10 μg/mL tofacitinib, 37 °C, 24 h
  fraction unbound at 24 h, 10 μg/mL: 0.803
In vitro; range over CON, LC and LC-ISN rats
  fraction unbound at 24 h, 10 μg/mL: 0.749 to 0.82
[5]
  Stability: stable
